Experimental data: a melting point compilation (Tetko et al.)

melting point [°C]	SMILES
70	C#CCCCCN1C(=O)c2ccccc2C1=O
5 to 6	CCCCCC=CC(=O)O
-26	CCOC(=O)C(C)O (stereo not given)
346 to 350	O=C(O)c1ccc(Cc2ccc(C(=O)O)cc2)cc1
118 to 120	Nc1n[nH]c(-c2ccccc2)c1Br
49 to 50	Brc1ccc2c(c1)CCO2
80 to 82	Cc1cc(Oc2ncccc2[N+](=O)[O-])cc(C)c1Cl
231 to 234	Cc1ccc(S(=O)(=O)NCCCC[C@H](N)C(=O)O)cc1
93	COc1ccc(C(=O)c2cccc(C)c2)cc1OC
116 to 118	O=S(=O)(c1ccc(Cl)cc1)n1cccc1
95.5	O=[N+]([O-])c1cc(N(CCO)CCO)ccc1NCCO
234	Nc1ncnc2c1ncn2CCCNC(=O)c1cc([N+](=O)[O-])cc([N+](=O)[O-])c1
97	CC(=O)/C(=C\N)c1ccccc1
54 to 55	Cc1nc(-c2ccc(Br)s2)no1
186	CN(C)c1ccc(C2CC(c3ccc4ccccc4c3)=NN2c2ccccc2)cc1 (stereo not given)
151 to 152	O=C(N[C@@H](Cc1ccccc1)C(=O)Oc1c(F)c(F)c(F)c(F)c1F)OCC1c2ccccc2-c2ccccc21
97	CC(C)(C)OC(=O)N[C@H](CO)Cc1ccccc1
152	CC(CCC(/C=N/NC(N)=O)C(C)C)C(=O)O (stereo not given)
186	CC1(C)CC(=O)C(=NNc2cccc([N+](=O)[O-])c2)C(=O)C1
-85	CCCCC(O)C(C)C (stereo not given)
34	N#CCSc1ccc(F)cc1
106 to 109	NC(=S)c1cccc2c1OCCO2
-29	Nc1ccccc1F

melting point [°C]	SMILES
143	Nc1ccc2ccc3ccccc3c2c1
65.5 to 67	O=C(Oc1c(F)c(F)c(F)c(F)c1F)c1cccnc1
160	C=C1C(=O)C23C(OC)CC4C5(C)CCCC4(COC5)C2C(OC(C)=O)CC1C3OC(C)=O (stereo not given)
92	N#Cc1ccc(F)c([N+](=O)[O-])c1
19	Fc1c(F)c(F)c(CBr)c(F)c1F
92.5	CCNC(N)=O
220	CCC1=CCCC1=NNc1ccc([N+](=O)[O-])cc1[N+](=O)[O-]
69.4	CCCCCC(C)OC(=O)COc1ccc(Cl)c2cccnc12 (stereo not given)
175	COc1cc2c(cc1OC)C(=O)NCC2
309	CC(=O)OCC(=O)C12OC(C)(C)OC1CC1C3CC(F)C4=CC(=O)C=CC4(C)C3(F)C(O)CC12C (stereo not given)
36.5	O=C1CCCCCCN1
198 to 203	N#Cc1ccc(CCc2ccc(C#N)cc2)cc1
89.8	Oc1ccccc1[C@H]1C[C@H](c2ccccc2)Sc2ccccc2N1
250	O=C1c2ccccc2C(=O)C1(O)O
84.2	CCCCCCCCCCCCCCCCCCCCCCCC(=O)O
222	NC(=O)c1ccccc1C(N)=O
186 to 188	COc1cc2c(cc1OC)C(c1ccccc1Cl)N(C(C)=O)CC2 (stereo not given)
174	CC(C)(C(N)=O)n1nc2ccccc2n1
222 to 227	CC(C)n1nnc2cc(C(=O)O)ccc21
88 to 90	OCc1cccc(-c2ccsc2)c1
95	CN1CCc2c(c3ccccc3n2Cc2ccccc2)C1
250	Nc1ccc(C=Cc2ccc(N)cc2OS(=O)(=O)c2ccccc2)c(OS(=O)(=O)c2ccccc2)c1
203 to 205	O=C(O)c1ccc(=O)oc1

SMILES	melting point [°C]
CCCC(O)C=CC=CC=CC#CC#CCCCO (stereo not given)	54
N#Cc1ccccc1CBr	72
Cc1cc([N+](=O)[O-])c(Cl)c([N+](=O)[O-])c1	114 to 116
Fc1cc(Br)ccc1CBr	35
